Earlier results on one compound are cited in patent US20070036859A1, “Sustained release antihistamine and decongestant composition” (priority 2005, published 2007).

The structures appear in SMILES notation.

The conditions of the data set: conventional tablets, oral.

`CCOC(=O)N1CCC(=C2c3ccc(Cl)cc3CCc3cccnc32)CC1` [loratadine]: the “duration of antihistaminic effect” value is more than 24 h and the “time to begin of antihistaminic effect after ingestion” value was “one to three”.
